Assay results from PubChem BioAssay (NCI).
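How tested: cells in 96-well plates exposed to compound for 48 hours at five concentrations. TGI marks complete inhibition of growth.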

Legend:
Assay in all cases: NCI tumour cell line growth inhibition, 48 h
LXFL 529 NSCLC = test system: LXFL 529 NSCLC
DMS 273 small cell lung = test system: DMS 273 small cell lung
P388 leukemia = test system: P388 leukemia
DMS 114 small cell lung = test system: DMS 114 small cell lung
P388/ADR leukemia = test system: P388/ADR leukemia

| SMILES | TGI (LXFL 529 NSCLC) [µM] | TGI (DMS 273 small cell lung) [µM] | TGI (P388 leukemia) [µM] | TGI (DMS 114 small cell lung) [µM] | TGI (P388/ADR leukemia) [µM] |
| --- | --- | --- | --- | --- | --- |
| CC(=O)OCc1nnn2c1CCC2 | > 100 |  |  |  |  |
| COc1ccc(OCC(C)(C)O)cc1 |  | > 100 | > 100 | > 100 |  |
| CCOC(=O)/C=C/c1c[nH]c(=O)[nH]c1=O |  | > 75 | > 75 | > 75 | > 75 |
